One data set deals with human L444P mutated Gba. As to the kind of experiment: Gba activity in brain and organs of L444P transgenic mice treated with chaperone in drinking water (incl. washout study). The format is in vivo, mouse. As to conditions: for Gba activity in brain: about 10 mg/kg/day in drinking water. As for the experimental part: L444P is a mutation associated with Types 2 and 3 Gaucher disease. […] Concomitant glucosylceramide synthase disruption is necessary, since previously made L444P transgenic mice died within 3 days of birth due to impaired permeability barrier function in the epidermis.
In addition, mice in a “washout” period of 2 weeks of non-chaperone treatment following 4 weeks of treatment were also evaluated for reversion of surrogate markers back to levels seen in untreated controls.
Mice were administered isofagomine or C-benzyl-isofagomine in their drinking water, ad libitum. Estimated daily dosage based on the volume of water consumed is about 10 mg/kg/day.
[…] Brian tissue is freshly harvested (blood washed away with PBS), or thawed from frozen stock. Tissue is minced tissue and homogenized on ice in 200-500 μl McIlvaine (MI) buffer (0.25% sodium taurocholate, 0.1% Triton x-100 in 0.1M citrate and 0.2M phosphate buffer, pH 5.2), and centrifuged at 10,000×g. The supernatant is collected and may be frozen at this step.
About 1-10 μl of supernatant from the brain tissue homogenates is added to a clear 96-well plate for the Micro BCA Protein Assay (Pierce, cat #23235) to quantitate the amount of total protein according to the manufacturer's protocol. As a negative control, another 10 μl is added to a black plate, mixed with 10 μl of 2.5 mM CBE (2.7 mg Conduritol B Epoxide in 6.7 ml buffer), an inhibitor of Gba activity, and left at room temperature (RT) for 30 minutes. 50 μl of 3 mM 4-methal Umbelliferal beta-D-glucoside (4-MU-beta-D-glucoside; made fresh, powder is dissolved in 0.2 ml of DMSO, then q.s. to proper volume with MI buffer), a Gba substrate, is then added, and the black plate is further incubated at 37° C. for 1 hr. After incubation, 10 μl of supernatant is added to a second black plate, mixed with 10 μl of MI buffer and 50 μl […] of Gba substrate 4-MU-beta-D-glucoside, and incubated at 37° C. for 1 hr. The reaction is then stopped by adding 70 μl 0.2 M glycine, pH 10.8. The plate is read in a plate-reader (Victor2 1420 multilabel counter; Wallac) at F460.
Relative […] is determined by the following equation: F460 without CBE−F460 with CBE)/(A550 sample−A550 buffer)
F460 reading is converted into nmole 4-MU based on 4-MU standard curve and A550 is converted into mg of protein based on the protein standard curve. One unit of Gba activity is defined as nmole of 4-MU released in one hour.
To determine if and in what time frame the effects of drinking water dosed AT2101 on L444P mice regress after cessation of the treatment, a washout study was performed. Nine male 3 month old L444P mice were dosed at about 10 mg/kg/day for 4 weeks with an equal number of mice untreated as a control.

Data set [1] has as its system N370S Gaucher fibroblasts (DMN89.15). As to the kind of experiment: Gba / LAMP-1 lysosomal staining (confocal microscopy) in N370S Gaucher fibroblasts. The class given is cell-based, human. To be noted: for Gba staining localization: N370S Gaucher fibroblasts; for Amount of Gba in the lysosomes: dual Gba/LAMP-1 staining vs untreated control; for Lysosome staining pattern for Gba and LAMP-1: dual staining vs untreated control. As for the experimental part: N370S fibroblasts (DMN89.15) were cultured in DMEM with 10% FBS and 1% penn/strep at 37 C with […]. Wild-type fibroblast cell line CRL-2097 form a healthy individual was used as a control. Cells were sub-cultured from 10 cm plates into 12-well plates with cover slips. Cells from one confluent 10 cm plate were diluted in 38 ml of culture medium.
C-benzyl-isofagomine-control (secondary antibody only); untreated; 0.03 μM; 0.1 μM; 0.3 μM; 1.0 μM; 3.0 μM; and 10.0 μM.
Isofagomine-control (secondary antibody only); untreated; 10 μM; 30 μM; 100 μM; 1 nM; 3 nM; and 10 nM.
Cells were cultured for a total of about 6 days.
Cells were washed for 5 minutes in PBS, fixed for 15 minutes in 3.7% paraformaldahyde (in PBS), washed again for 5 minutes in PBS, and permeabilized with 0.5% saponin for 5 minutes. Cells were then washed with PBS containing 0.1% saponin, treated for 5 minutes with fresh 0.1% sodium borohydride/0.01% saponin, and washed 3 times with PBS with 0.1% saponin/1% BSA for 5 minutes each.
Cells were incubated for 1 h with 500 μl of primary anti-Gba (1:200) or anti-LAMP-1 (1:200; BD Pharmingen, Cat. No. 555798) antibody solution in PBS with 1% BSA. Lysosomal staining using LysoTracker® Red (Cambrex, East Rutherford, N.J.) was performed according to the manufacturer's instructions. Following incubation, cells were washed 3 times in 1% BSA containing 0.1% saponin in PBS, followed by incubation with the secondary antibody solution (1:500; anti-rabbit […] for anti-Gba and anti-mouse IgG AlexaFluor594 for anti-LAMP-1). Cells were mounted onto coverslips, sealed, and immediately viewed.
Cells were visualized using a confocal microscope. The red and green channel gains were set to 6 and the laser power was optimized using the intensity window, and were not adjusted for the rest of the experiment. All slides were analyzed at the same sitting and all images were gathered without any zoom using the 20× and 60× lens, the small pinhole, optimal pixel size, an average of 2 scans, and red and green channels were acquired simultaneously as in all previous experiments.

The target in data set [2] is T1, human mutant α-Gal A (R301Q) (Homo sapiens, UniProt P06280, R301Q).
T1 sequence (P06280 32-429 R301Q): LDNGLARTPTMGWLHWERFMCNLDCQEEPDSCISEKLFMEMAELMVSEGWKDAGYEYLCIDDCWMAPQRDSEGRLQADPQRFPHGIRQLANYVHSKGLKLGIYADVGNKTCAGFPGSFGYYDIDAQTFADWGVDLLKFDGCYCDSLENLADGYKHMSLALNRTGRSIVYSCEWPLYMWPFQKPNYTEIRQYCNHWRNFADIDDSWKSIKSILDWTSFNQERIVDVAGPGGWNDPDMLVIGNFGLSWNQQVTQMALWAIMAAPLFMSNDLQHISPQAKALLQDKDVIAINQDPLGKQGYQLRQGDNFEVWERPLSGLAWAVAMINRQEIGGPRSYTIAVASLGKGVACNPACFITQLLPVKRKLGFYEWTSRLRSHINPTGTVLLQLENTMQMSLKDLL
To be noted: neutral pH; cited from earlier work.

Data set [3] deals with lymphoblasts established from Fabry patients with R301Q or Q279E mutations. To be noted: cited from earlier work.
Another data set deals with T2, mutant (R301Q) α-Gal A (Homo sapiens, UniProt P06280, R301Q).
T2 construct: host or cells: major organs of transgenic mice
T2 sequence (P06280 32-429 R301Q): T1 sequence (P06280 32-429 R301Q)
To be noted: oral administration, transgenic mice overexpressing mutant (R301Q) α-Gal A; cited from earlier work.

Data set [4] is described as follows: Detection of IFG in the CSF of treated monkeys. The class given is in vivo.
For the next data set, the system named is Gaucher patient cells. As to conditions: cited from earlier work.
[5] abbreviates: after two weeks of treatment, data not shown.
Setting [6] is: N370S fibroblasts, 3.0 μl (so in the source).
The mark [7] stands for this setting: N370S fibroblasts, concentration not given.

Take `OCC1C(Cc2ccccc2)NCC(O)[C@@H]1O` (stereo partly shown) [C-benzyl-isofagomine]: in the data set on human L444P mutated Gba (setting [5]), the “Gba activity in brain (in words)” value is reported as “trend toward increased activity”, the “Gba activity in lung (in words)” value is reported as “trend toward increased activity” and the “Gba activity in spleen (in words)” value was “significant increased”. Further, the “Gba activity in brain (in words)” value in the data set with human L444P mutated Gba (after two weeks of treatment, data not shown, listed as AT2206) is recorded as “trend toward increase”. Besides, the Gba staining localization result in data set [1] (3 μM, Gba staining only (FIG. 2N)) was “localize to lysosomes”. In data set [1] (setting [6]), the “Amount of Gba in the lysosomes” value is “increased”; the “Lysosome staining pattern for Gba and LAMP-1” value was “re-established a normal lysosome punctuate staining pattern”.
Turning to `OC[C@H]1NC[C@H](O)[C@@H](O)[C@H]1O` [DGJ, 1-deoxygalactonojirimycin], in data set [2], the “In vitro stability of the mutant enzyme” value is recorded as “effectively increased”. The “Mutant enzyme activity in lymphoblasts” value in data set [3] is given as “enhanced”. Further, the “Enzyme activity in major organs” value on mutant (R301Q) α-Gal A is given as “substantially elevated”.
On to `OC[C@H]1CNC[C@@H](O)[C@@H]1O` [isofagomine, (3R,4R,5R)-5-(hydroxymethyl)-3,4-piperidinediol], for which, in the data set on human L444P mutated Gba (after 2 weeks of treatment, untreated about 1 U/mg), the “Gba activity in brain” value is given as “about 4.5 U/mg”. In the data set with human L444P mutated Gba (after 4 weeks of treatment, untreated about 1 U/mg), the “Gba activity in brain” value is recorded as “about 4.5 U/mg”. Moreover, the “Gba activity in brain” value in the data set on human L444P mutated Gba (after 12 weeks of treatment, p<0.001) is reported as “about 6 U/mg”. Besides, the “Gba activity in brain, washout study (in words)” value with human L444P mutated Gba (after 4 weeks of treatment at 10 mg/kg/day (FIG. 1B)) is listed as “significantly elevated”. For the same molecule, the “Gba activity in brain (in words)” value with human L444P mutated Gba (after as little as two weeks of treatment, persisted through 4-12 weeks (FIG. 1A)) is on record as “Significant increase”. In data set [4], the “Detection in the CSF following treatment” value is listed as “detected”. For the same molecule, in data set [1] (30 μM, Gba staining only (FIG. 2M)), the Gba staining localization entry is listed as “localize to lysosomes”. Further, in data set [1] (N370S fibroblasts, 30.0 μM), the “Amount of Gba in the lysosomes” value was “increased”; the “Lysosome staining pattern for Gba and LAMP-1” value is given as “re-established a normal lysosome punctuate staining pattern”. In addition, in data set [1] (setting [7]), the “Amount of Gba seen in the lysosome” value is given as “increased” and the “Lysosomal staining pattern of the cells” value is “restored a normal lysosomal staining pattern”. For the same molecule, the “Rescue of Gba” value in the data set with Gaucher patient cells is recorded as “rescue”.

Source of the values: US9597324B2, “Treatment of CNS disorders associated with mutations in genes encoding lysosomal enzymes” (Amicus Therapeutics, Inc., priority 2005, dated 2017).
